Experimental data published in patent publication US11065251B2, “PAK1 inhibitors and uses thereof” (Albert Einstein College of Medicine, priority 2016, dated 2021).
In brackets after ≈: the same amount, converted by molar mass. Like-named read-outs stand apart in the source and are kept apart here.

How the values were obtained:
[1] = Microsomal stability, human (HLM); type: in vitro ADME
[2] = target: PAK1 (Homo sapiens, UniProt Q13153); assay: PAK1 IC50 determination, Z'-LYTE kinase assay; type: biochemical; conditions: [ATP]=10×Km; [PAK1]=1 ng; read-out: IC50 against PAK1
Sequence of PAK1 (Q13153 whole entry): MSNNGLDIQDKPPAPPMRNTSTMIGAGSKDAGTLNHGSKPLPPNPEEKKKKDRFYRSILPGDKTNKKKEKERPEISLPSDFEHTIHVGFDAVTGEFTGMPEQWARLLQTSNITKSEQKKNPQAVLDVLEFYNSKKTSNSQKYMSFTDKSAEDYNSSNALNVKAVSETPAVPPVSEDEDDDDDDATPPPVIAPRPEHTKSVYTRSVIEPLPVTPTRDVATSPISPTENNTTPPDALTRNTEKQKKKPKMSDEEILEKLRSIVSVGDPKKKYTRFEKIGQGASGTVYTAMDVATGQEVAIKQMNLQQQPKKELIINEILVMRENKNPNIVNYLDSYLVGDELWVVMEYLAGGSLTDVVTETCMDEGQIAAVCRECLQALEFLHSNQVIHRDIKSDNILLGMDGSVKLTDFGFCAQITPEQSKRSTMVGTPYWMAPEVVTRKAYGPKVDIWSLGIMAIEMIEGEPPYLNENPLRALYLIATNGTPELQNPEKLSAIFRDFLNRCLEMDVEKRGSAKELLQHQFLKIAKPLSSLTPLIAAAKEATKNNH
Method: Protocol for determining IC50 Values for test compounds at [ATP]=10×Km; [PAK1]=1 ng
Add 2 ml 5× Kinase Buffer to 8 ml water to prepare […] of Kinase Buffer A.
• Thaw the concentrated stock of test compound at room temperature. • 2.1. Add 10 μl of 100% DMSO to row A, columns 2-11 (wells A2-A11) in a 96-well assay plate (non-binding surface). To well A1, add 15 μl of the concentrated stock of test compound. This will be the highest concentration of test compound in a 10-point titration curve. Use a concentration that is 100× the final desired 1× concentration per 10 μl kinase reaction. For example, if the final 1× concentration of 100 μM is desired for the highest concentration of test compound in the 10 point titration curve, add 15 μl of 10 mM test compound to well A1. • 2.2. Titrate the 100× test compound three-fold across the assay plate from well A1 to well A10. To perform this threefold titration, transfer 5 μl of the 100× test compound from well A1 to the 10 μl of 100% DMSO in well A2. Repeat for wells A2-A10. Discard the final 5 μl from well A10 so that all wells contain 10 μl. […] This completes the 10-point three-fold titration of test compound at 100× concentration. • 2.3. Transfer a 2 μl aliquot of the 100× test compound titration series from each well in row A of the 96-well assay plate (wells A1-A12) to row B (wells B1-B12). Add 48 μl of complete kinase reaction buffer to each well in row B to dilute the 100× three-fold titration series of test compound to 4× (the DMSO will also be diluted, to 4%). • 2.4. Transfer 2.5 μl of the 4× concentrated three-fold titration series of test compound from row B of the 96-well assay plates to quadruplicate wells of a 384-well assay plate. Each well in columns 21-24 should contain 2.5 μl of 4% DMSO (no compound) in complete kinase reaction buffer. This 2.5 μl addition of 4× test compound in 4% DMSO produces a 1× concentration of test compound in 1% DMSO for a 10 μl kinase reaction. • 2.5. Dispense 2.5 μl of complete kinase reaction buffer to each well in columns 23-24 of the 384-well assay plate.
• 1. Prepare 500 μl of 4 μM Z′-LYTE® Phospho-peptide by adding 2 μl of 1 mM Z′-LYTE® Phospho-peptide to 498 μl of complete kinase reaction buffer. • 2. Dispense 5 μl of the 4 μM Z′-LYTE® Phospho-peptide (2×) to each well in column 24 of the 384-well assay plate. • 3. Prepare 1000 μl of 4 μM Z′-LYTE® Peptide Substrate (2×)/2× kinase solution in complete kinase reaction buffer. If necessary, prepare an intermediate dilution of the kinase in complete kinase reaction buffer before preparing the Z′-LYTE™ Peptide Substrate (2×)/2× kinase solution. Use the appropriate 2× kinase concentration in the assay to phosphorylate 20-50% of the 0% inhibition controls at the ATP concentration desired. • 4. […]

[3] = Microsomal stability, rat (RLM); type: in vitro ADME
[4] = Pharmacokinetic (PK) assessment in rats; type: in vivo; conditions: for Cmax / Tmax / MRT last / half-life / AUC(0-t) / AUC(0-inf): rat, plasma; for MRT last: read-out: MRT MRT last; for half-life: read-out: T ½ HL_Lambda_z (converted); for AUC(0-t): read-out: AUC0→t AUC last; for AUC(0-inf): read-out: AUC0→∞ AUC INF_obs
[5] = Solubility assessment; type: physicochemical; conditions: kinetic from dmso stock
[6] = Caco-2 permeability; type: in vitro ADME; conditions: human

microsomal CLint ([1]; human, human liver microsomes, HLM): 12 µL/min/mg | half-life ([1]; liver microsomes, human microsomes, read-out: t½): 1.98 h | IC50 [2]: < 30 nM | half-life ([3]; liver microsomes, rat microsomes, read-out: t½): 2.45 h | microsomal CLint ([3]; rat, rat liver microsomes, RLM): 9 µL/min/mg | Cl_obs ([4]; IV, 3 mg/kg): 4.97 mL/min/kg | Vss_obs ([4]; IV, 3 mg/kg): 1.705 L/kg | Biovailability ([4]; PO 30 mg/kg versus IV 3 mg/kg): 13.9% | Cmax ([4]; IV, 3 mg/kg): 3620 ng/mL | Tmax ([4]; IV, 3 mg/kg): 0.17 h | MRT last ([4]; IV, 3 mg/kg): 5 h | half-life ([4]; IV, 3 mg/kg): 5 h | Cmax ([4]; PO, 30 mg/kg): 943 ng/mL | Tmax ([4]; PO, 30 mg/kg): 8 h | MRT last ([4]; PO, 30 mg/kg): 10 h | half-life ([4]; PO, 30 mg/kg): 6.19 h | AUC(0-t) ([4]; iv, 3 mg/kg, IV, 3 mg/kg): 9750 ng·h/mL | AUC(0-inf) ([4]; iv, 3 mg/kg, IV, 3 mg/kg): 10100 ng·h/mL | AUC(0-t) ([4]; po, 30 mg/kg, PO, 30 mg/kg): 12600 ng·h/mL | AUC(0-inf) ([4]; po, 30 mg/kg, PO, 30 mg/kg): 14000 ng·h/mL | solubility ([5]; aqueous buffer, UB pH 2, 1% DMSO, read-out: Solubility in UB pH 2, 1% DMSO): 59 µM (≈ 32.8 µg/mL) | solubility ([5]; aqueous buffer, UB pH 7, 1% DMSO, read-out: Solubility in UB pH 7, 1% DMSO): 25 µM (≈ 13.9 µg/mL) | solubility ([5]; simulated gastric fluid, SGF, 1% DMSO, read-out: Solubility in SGF, 1% DMSO): 58 µM (≈ 32.2 µg/mL) | efflux ratio ([6]; Caco-2, read-out: Assym index): 1 | Papp A→B ([6]; Caco-2, A-B): 3.9 ×10⁻⁶ cm/s | Papp B→A ([6]; Caco-2, B-A): 3.8 ×10⁻⁶ cm/s
SMILES: CCn1c(=O)c(-c2ccc(-c3nc(C)c[nH]3)cc2Cl)cc2cnc(Nc3ccc(N4CCN(C)CC4)cc3)nc21 [Compound 42-0125_1]
